Source: patent US12180187B2, “1-phenyl-5-azinylpyrazolyl-3-oxyalkyl acids and their use for controlling unwanted plant growth” (BAYER AKTIENGESELLSCHAFT, priority 2019, dated 2024)

How the values were obtained:
[1] = tested on: ECHCG; assay: Pre-emergence action against ECHCG, 1280 g/ha; assay type: in vivo, Echinochloa crus-galli; conditions: visual scoring after about 3 weeks vs untreated controls, 100% = plants have died, 0% = like control plants
Source text: (§1) 1. Pre-Emergence Herbicidal Effect and Crop Plant Compatibility a) Seeds of mono- and dicotyledonous weed plants are placed in plastic pots in sandy loam soil (doubly sown with one species each of mono- or dicotyledonous weed plants per pot) and covered with soil. The compounds of the invention, formulated in the form of wettable powders (WP) or as emulsion concentrates (EC), are then applied onto the surface of the covering soil as aqueous suspension or emulsion with addition of 0.5% additive at a water application rate equivalent to 600 litres per hectare. After the treatment, the pots are placed in a greenhouse and kept under good growth conditions for the trial plants. After about 3 weeks, the effect of the preparations is scored visually in comparison with untreated controls as percentages. For example, 100% activity=the plants have died, 0% activity=like control plants. 1. Pre-Emergence Effectiveness Tables 1 to 12 below show the effects of selected compounds of the general formula (I) according to Tables 1 and 2 on various harmful plants and at an application rate corresponding to 1280 g/ha, which were obtained by the experimental procedure mentioned above.

[2] = tested on: LOLRI; assay: Pre-emergence action against LOLRI, 1280 g/ha; assay type: in vivo, Lolium rigidum; conditions: visual scoring after about 3 weeks vs untreated controls, 100% = plants have died, 0% = like control plants
Source text: as §1

[3] = tested on: POAAN; assay: Pre-emergence action against POAAN, 1280 g/ha; assay type: in vivo, Poa annua; conditions: visual scoring after about 3 weeks vs untreated controls, 100% = plants have died, 0% = like control plants
Source text: as §1

[4] = tested on: SETVI; assay: Pre-emergence action against SETVI, 1280 g/ha; assay type: in vivo, Setaria viridis; conditions: visual scoring after about 3 weeks vs untreated controls, 100% = plants have died, 0% = like control plants
Source text: as §1

[5] = tested on: AMARE; assay: Pre-emergence action against AMARE, 1280 g/ha; assay type: in vivo, Amaranthus retroflexus; conditions: scored visually after about 3 weeks vs untreated controls (100% = plants have died)
Source text: as §1

[6] = tested on: MATIN; assay: Pre-emergence action against MATIN, 1280 g/ha; assay type: in vivo, Tripleurospermum inodorum (Matricaria inodora); conditions: scored visually after about 3 weeks vs untreated controls (100% = plants have died)
Source text: as §1

[7] = tested on: STEME; assay: Pre-emergence action against STEME, 1280 g/ha; assay type: in vivo, Stellaria media; conditions: scored visually after about 3 weeks vs untreated controls (100% = plants have died)
Source text: as §1

[8] = tested on: VERPE; assay: Pre-emergence action against VERPE, 1280 g/ha; assay type: in vivo, Veronica persica; conditions: scored visually after about 3 weeks vs untreated controls (100% = plants have died)
Source text: as §1

[9] = tested on: ECHCG; assay: Post-emergence action against ECHCG, 1.28 kg/ha; assay type: in vivo, Echinochloa crus-galli; conditions: dosage 1280 g/ha, visual rating about 3 weeks after treatment vs untreated controls
Protocol: (§2) • a) Seeds of mono- and dicotyledonous weed plants are placed in plastic pots in sandy loam soil (twin sowing with one species each of mono- or dicotyledonous weed plants per pot), covered with soil and cultivated in a greenhouse under controlled growth conditions. 2 to 3 weeks after sowing, the test plants are treated at the one-leaf stage. The compounds of the invention, formulated in the form of wettable powders (WP) or as emulsion concentrates (EC), are applied to the green parts of the plants as aqueous suspension or emulsion with addition of 0.5% additive at a water application rate equivalent to 600 litres per hectare. After the test plants have been kept in the greenhouse under optimum growth conditions for about 3 weeks, the activity of the preparations is rated visually in comparison to untreated controls. For example, 100% activity=the plants have died, 0% activity=like control plants. As shown by the results, compounds of the general formula (I) of the invention, in post-emergence treatment, have very good herbicidal efficacy (90% to 100% herbicidal action) against harmful plants such as Abutilon theophrasti, Digitaria sanguinalis, Echinochloa crus-galli, Matricaria inodora, Poa annua, at an application rate of 1.28 kg of active substance per hectare.

[10] = tested on: POAAN; assay: Post-emergence action against POAAN, 1.28 kg/ha; assay type: in vivo, Poa annua; conditions: dosage 1280 g/ha, visual rating about 3 weeks after treatment vs untreated controls
Protocol: as §2

[11] = tested on: SETVI; assay: Post-emergence action against SETVI, 1.28 kg/ha; assay type: in vivo, Setaria viridis; conditions: dosage 1280 g/ha, visual rating about 3 weeks after treatment vs untreated controls
Protocol: as §2

[12] = tested on: ABUTH; assay: Post-emergence action against ABUTH, 1.28 kg/ha; assay type: in vivo, Abutilon theophrasti; conditions: dosage 1280 g/ha, visual rating about 3 weeks after treatment vs untreated controls (100% = plants died)
Protocol: as §2

[13] = tested on: AMARE; assay: Post-emergence action against AMARE, 1.28 kg/ha; assay type: in vivo, Amaranthus retroflexus; conditions: dosage 1280 g/ha, visual rating about 3 weeks after treatment vs untreated controls (100% = plants died)
Protocol: as §2

[14] = tested on: MATIN; assay: Post-emergence action against MATIN, 1.28 kg/ha; assay type: in vivo, Tripleurospermum inodorum (Matricaria inodora); conditions: dosage 1280 g/ha, visual rating about 3 weeks after treatment vs untreated controls (100% = plants died)
Protocol: as §2

[15] = tested on: STEME; assay: Post-emergence action against STEME, 1.28 kg/ha; assay type: in vivo, Stellaria media; conditions: dosage 1280 g/ha, visual rating about 3 weeks after treatment vs untreated controls (100% = plants died)
Protocol: as §2

[16] = tested on: VERPE; assay: Post-emergence action against VERPE, 1.28 kg/ha; assay type: in vivo, Veronica persica; conditions: dosage 1280 g/ha, visual rating about 3 weeks after treatment vs untreated controls (100% = plants died)
Protocol: as §2

[17] = tested on: ALOMY; assay: Pre-emergence action at 320 g/ha against ALOMY; assay type: in vivo, Alopecurus myosuroides; conditions: scored visually after about 3 weeks vs untreated controls (100% = plants have died)
Source text: (§3) b) Seeds of monocotyledonous and dicotyledonous weed plants and crop plants are placed in plastic or organic planting pots and covered with soil. The compounds of the invention, formulated in the form of wettable powders (WP) or as emulsion concentrates (EC), are then applied onto the surface of the covering soil as aqueous suspension or emulsion with addition of 0.5% additive at a water application rate of 600 l/ha (converted). After the treatment, the pots are placed in a greenhouse and kept under good growth conditions for the trial plants. After about 3 weeks, the effect of the preparations is scored visually in comparison with untreated controls as percentages. For example, 100% activity=the plants have died, 0% activity=like control plants. Tables 13 to 26 below show the effects of selected compounds of the general formula (I) on various harmful plants and at an application rate corresponding to 320 g/ha, which were obtained by the experimental procedure mentioned above.

[18] = tested on: LOLRI; assay: Pre-emergence action at 320 g/ha against LOLRI; assay type: in vivo, Lolium rigidum; conditions: visual scoring after about 3 weeks vs untreated controls
Source text: as §3

[19] = tested on: AMARE; assay: Pre-emergence action at 320 g/ha against AMARE; assay type: in vivo, Amaranthus retroflexus; conditions: visual scoring after about 3 weeks vs untreated controls
Source text: as §3

[20] = tested on: MATIN; assay: Pre-emergence action at 320 g/ha against MATIN; assay type: in vivo, Tripleurospermum inodorum (Matricaria inodora); conditions: visual scoring after about 3 weeks vs untreated controls
Source text: as §3

[21] = tested on: POLCO; assay: Pre-emergence action at 320 g/ha against POLCO; assay type: in vivo, Fallopia convolvulus (Polygonum convolvulus); conditions: visual scoring after about 3 weeks vs untreated controls
Source text: as §3

[22] = tested on: VERPE; assay: Pre-emergence action at 320 g/ha against VERPE; assay type: in vivo, Veronica persica; conditions: visual scoring after about 3 weeks vs untreated controls
Source text: as §3

[23] = tested on: VIOTR; assay: Pre-emergence action at 320 g/ha against VIOTR; assay type: in vivo, Viola tricolor; conditions: dosage 320 g/ha
Source text: as §3

[24] = tested on: DIGSA; assay: Pre-emergence action against DIGSA, 1280 g/ha; assay type: in vivo, Digitaria sanguinalis; conditions: visual scoring after about 3 weeks vs untreated controls, 100% = plants have died, 0% = like control plants
Source text: as §1

[25] = tested on: ALOMY; assay: Post-emergence action against ALOMY, 1.28 kg/ha; assay type: in vivo, Alopecurus myosuroides; conditions: dosage 1280 g/ha, visual rating about 3 weeks after treatment vs untreated controls
Protocol: as §2

[26] = tested on: DIGSA; assay: Post-emergence action against DIGSA, 1.28 kg/ha; assay type: in vivo, Digitaria sanguinalis; conditions: dosage 1280 g/ha, visual rating about 3 weeks after treatment vs untreated controls
Protocol: as §2

[27] = tested on: DIGSA; assay: Pre-emergence action at 320 g/ha against DIGSA; assay type: in vivo, Digitaria sanguinalis; conditions: visual scoring after about 3 weeks vs untreated controls
Source text: as §3

Compound | Pre-emergence action against ECHCG [1] [%] | Pre-emergence action against LOLRI [2] [%] | Pre-emergence action against POAAN [3] [%] | Pre-emergence action against SETVI [4] [%] | Pre-emergence action against AMARE [5] [%] | Pre-emergence action against MATIN [6] [%] | Pre-emergence action against STEME [7] [%] | Pre-emergence action against VERPE [8] [%] | Post-emergence action against ECHCG [9] [%] | Post-emergence action against POAAN [10] [%] | Post-emergence action against SETVI [11] [%] | Post-emergence action against ABUTH [12] [%] | Post-emergence action against AMARE [13] [%] | Post-emergence action against MATIN [14] [%] | Post-emergence action against VERPE [16] [%] | Pre-emergence action at 320 g/ha against ALOMY in % [17] [%] | Pre-emergence action against LOLRI in % [18] [%] | Pre-emergence action against AMARE in % [19] [%] | Pre-emergence action against VERPE in % [22] [%] | Pre-emergence action against VIOTR in % [23] [%] | further results
CCOC(=O)COc1nn(-c2cc(F)c(F)cc2F)c(-c2ccc(F)nc2)c1Cl [VII-009] | 90 | 100 | 100 | 100 | 100 | 100 | 100 | 90 | 100 | 100 | 90 | 90 | 100 | 100 | 90 |  |  |  |  |  | Post-emergence action against STEME [15]: 100%
C[C@@H](Oc1nn(-c2ccccc2)c(-c2cccnc2)c1Cl)C(=O)O [VII-042] |  |  |  |  |  |  |  |  |  |  |  |  |  |  |  | 90 | 100 | 100 | 90 | 100 | Pre-emergence action against MATIN in % [20]: 90%; Pre-emergence action against POLCO in % [21]: 100%
CCOC(=O)COc1nn(-c2ccccc2F)c(-c2ccc(F)nc2)c1C(F)F [VII-078] |  |  |  |  |  |  |  |  |  |  |  |  |  |  |  | 80 |  | 100 | 80 | 90 | 
O=C(O)C1CCN(C(=O)COc2nn(-c3ccccc3F)c(-c3cncc(F)c3)c2Br)CC1 [Example X-038] |  | 90 | 100 | 100 | 100 | 90 | 90 | 90 | 90 | 100 | 90 | 90 |  | 100 | 100 |  |  |  |  |  | Pre-emergence action against DIGSA [24]: 90%; Post-emergence action against ALOMY [25]: 90%; Post-emergence action against DIGSA [26]: 90%
CCOC(=O)COc1nn(-c2ccc(F)cc2F)c(-c2ccc(F)nc2)c1F [VII-027] | 90 | 100 | 90 | 90 | 90 | 90 | 100 |  |  |  | 90 |  | 90 |  | 90 |  |  |  |  |  | Pre-emergence action against DIGSA [24]: 90%; Post-emergence action against ALOMY [25]: 100%; Post-emergence action against DIGSA [26]: 100%
CCOC(=O)C(F)Oc1nn(-c2ccccc2F)c(-c2ccc(F)nc2)c1Br (stereo not shown) [VII-071-a] |  |  |  |  |  |  |  |  |  |  |  |  |  |  |  | 80 | 100 | 100 | 80 | 100 | Pre-emergence action against DIGSA in % [27]: 90%; Pre-emergence action against MATIN in % [20]: 90%; Pre-emergence action against POLCO in % [21]: 90%
